Columns and labels:
B6D2F1 mice [1] = experiment: Paclitaxel-induced leukopenic mouse model, serial complete blood counts; format: in vivo
Description: Certified Rodent Diet #5053 (Lab Diet) was used. […] Mice were weighed each day. […] Sacrifice was performed by the CO2 method. […]
To determine the dose of Ptx required for induction of acute hematotoxicity that also permitted spontaneous recovery, fractionated dosing at 10 to 30 mg/kg was given 3 times every other day to groups of mice. After doses greater than 15 mg/kg were found effective, we compared cumulative doses of 60 and 90 mg/kg to untreated mice (n=4 each group). Serial CBCs were obtained from each mouse. Variation was evaluated by one-way ANCOVA and within mouse correlation was included as the covariate. Pair-wise differences were evaluated by Tukey's posttest. Treatment group variation was assessed by two-way ANOVA over the interval followed by between-group comparisons using Bonferroni posttests.

[2] = system: Gr-1+ granulocytes/monocytes; experiment: Flow cytometric oxidative burst (ROS) assay on peripheral blood ex vivo after Ptx; format: in vivo, mouse
Description: Flow Cytometric Oxidative Burst Assay: Peripheral blood was obtained by retro orbital bleeding; about 400 microL blood were collected into heparinized tubes. The respiratory burst assay was performed as described with modifications. Briefly, 100 microL blood aliquots were added to each tube, wash buffer or stimuli (opsonized E. coli, fMLP (N-formylmethionyl-leucyl-phenylalanine) were added at 20 microL. Tubes were incubated in a water bath at 37° C. for 10 mins, then 20 microL of dihydrorhodamine (DHR-123) was added and tubes were vortexed, and then incubated for another 10 mins. Red blood cells were lysed and removed after washing once. R-PE conjugated rat anti-mouse Ly-6G and Ly-6C (Gr-1, BD Biosciences) antibody was added in the presence of Mouse BD Fc Block (purified anti-mouse CD16/CD32 monoclonal antibody, 2.4G2, BD Biosciences) at 1 μg/million cells, and incubated at room temperature in the dark for 15 mins. Cells were washed; supernatants removed and 200 μL of DNA staining solution was added. The samples were analyzed by flow cytometer (FACSCalibur) using CellQuest. The initial gate was set with Gr-1 to identify granulocytes/monocytes; the percentage of responding cells was then analyzed with FlowJo software.
After brief exposure of whole blood to opsonized E. coli and the chemotactic peptide N-formyl-Met-Leu-Phe (fMLP) ex vivo, fluorescence of ROS positive cells was detected by the oxidation of the dihydrorhodamine substrate. Blood samples were collected from each group 4 days after the last dose of Ptx and again on post-day 11. […] Post-day 4 was 3 days after G-CSF injection for the Ptx+G-CSF group. The ROS responses of normal, untreated mice were also studied.

B6D2F1 mice [3] = experiment: Peripheral blood cell recovery (complete blood cell count) after Ptx treatment
Description: Mice: B6D2F1 mice female, 6-8 weeks old were purchased from Jackson Laboratory, and were maintained in a pathogen-free facility at Memorial Sloan-Kettering Cancer Center (MSKCC, New York, N.Y.) with access to fresh water and food ad libitum. Certified Rodent Diet #5053 (Lab Diet) was used. All animal experiments were approved by the MSKCC Animal Care Committee. Treatments: Ptx was intraperitoneally injected (i.p) at 30 mg/kg/day over […] with cumulative dose of 90-120 mg/kg to mice. Neupogen (G-CSF) was given i.v. at 80 microg/kg at 24 hrs after the last dose of Ptx. […] Mice were weighed each day. Blood was taken from the tail vein for complete blood cell (CBC) counts. Sacrifice was performed by the CO2 method.
Complete Blood Cell Count: Approximately 20 microL of blood was taken from the tail vein after warming, for assessment of CBC by automated differential analysis using the Hemavet instrument after instrument standardization.
Statistical Analysis: Data are presented as mean percentage ±SD or mean counts ±SD. To identify the appropriate dose of Ptx, ANCOVA was used to examine significance of variation in average cell counts or percentage of change from baseline across all days for the cell type of interest in a treatment group and possible within-mouse correlation was adjusted by including mouse ID as a covariate. If overall significance by ANCOVA was shown, Tukey's method was used to determine between-day significance. To assess significance of variation across dose groups (including untreated) over the treatment interval, two-way ANOVA was used and then Bonferroni method was used to adjust for between-group multiple comparisons. In the studies of blood cell recovery, the decrease in cell count was calculated as compared to the corresponding baseline during the treatment for each mouse. The averages of the group decreases across different treatment groups were compared using two-way ANOVA to determine significance. Two sample t-tests were used to compare the difference in average percentage change at a given time point between any two treatment groups. Tukey's or Bonferroni method was used to adjust p-values for multiple comparisons where appropriate. The analyses were carried out using GraphPad Prism software version 5.01. Additional information is provided in the text.
30 mg/kg/day Ptx was given over 3 consecutive days (90 mg/kg cumulative dose) to each group. […] The Ptx+G-CSF group received one dose of intravenous G-CSF (80 ug/kg), 24 hrs after the last Ptx dose. Changes in absolute numbers of leukocytes (white blood cell count) from baseline were evaluated from post-day 1 to post-day 8 after chemotherapy. For each mouse, percent change in counts from baseline was calculated. Change from baseline across days within a treatment group was assessed by ANCOVA and within-mouse correlation was included as appropriate. Paired t-tests were used to compare any two time-points. Differences among treatment groups across the experimental period were assessed by two-way

[4] = Ptx 90 mg/kg, MBG 6 mg/kg/day oral or G-CSF 80 ug/kg i.v. once

Molecule: CC(=O)O[C@H]1C(=O)[C@@]2(C)[C@H]([C@H](OC(=O)c3ccccc3)[C@]3(O)C[C@H](OC(=O)[C@H](O)[C@@H](NC(=O)c4ccccc4)c4ccccc4)C(C)=C1C3(C)C)[C@]1(OC(C)=O)CO[C@@H]1C[C@@H]2O [Ptx, Paclitaxel]
- Leukocyte numbers compared to untreated mice (B6D2F1 mice [1]; cumulative Ptx dose 60 mg/kg): fewer leukocytes
- Neutrophil counts across all days (B6D2F1 mice [1]; cumulative Ptx dose 60 mg/kg, ANCOVA, no pair-wise comparisons significant): overall drop in neutrophil counts across all days was significant
- Leukocyte numbers compared to untreated mice (B6D2F1 mice [1]; cumulative Ptx dose 90 mg/kg): lower leukocyte numbers on days 3, 4, and 5
- Lymphocyte numbers compared to the untreated group (B6D2F1 mice [1]; cumulative Ptx dose 90 mg/kg): lower over days 3, 4, and 5
- Lymphocytes compared to baseline (B6D2F1 mice [1]; cumulative Ptx dose 90 mg/kg): lower on day 8 compared to baseline
- Neutrophil counts compared to baseline (B6D2F1 mice [1]; cumulative Ptx dose 90 mg/kg): counts were significantly lower on days 4 and 5 compared to baseline
- Neutrophils compared to the untreated group (B6D2F1 mice [1]; cumulative Ptx dose 90 mg/kg (higher dose)): more reduced
- Changes in leukocyte numbers within group (B6D2F1 mice [1]; cumulative Ptx dose 90 mg/kg, one-way ANCOVA): produced significant changes in leukocyte numbers
- Fractionated Ptx dose found effective for induction of acute hematotoxicity (B6D2F1 mice [1]; given 3 times every other day): greater than 15 mg/kg
- Unstimulated ROS production on post-day 11 compared to post-day 4 ([2]; mouse, in vivo): unchanged
- ROS response to E. coli on post-day 11 compared to post-day 4 ([2]; p<0.0001): increased
- ROS response to fMLP on post-day 11 compared to post-day 4 ([2]; p<0.0001): decreased
- ROS response to E. coli compared to untreated mice ([2]; post-day 4): lower compared to untreated mice
- Leukocyte levels by post-day 5 compared to earlier post-days (B6D2F1 mice [3]; [4]): Counts improved by post-day 5 and 8 compared to post-day 1
- Lymphocyte recovery time course relative to baseline (B6D2F1 mice [3]; [4]): baseline levels were not achieved, even by post-day 8
- Neutrophil recovery time course (B6D2F1 mice [3]; [4]): Baseline levels were achieved by post-day 8
- Decrease in neutrophil level on post-day 5, between groups (B6D2F1 mice [3]; early recovery period): greater
- Duration of suppression of peripheral blood white blood cell counts below baseline levels (B6D2F1 mice [3]; mouse, in vivo): more than 8 days
- Monocyte counts below baseline at lowest point (B6D2F1 mice [3]; mouse, in vivo): 77.6±13%

B1: G-CSF: Neupogen (G-CSF) from Amgen; recombinant human G-CSF (protein, UniProt P09919 31-207, looked up)
Granulocyte …: TPLGPASSLPQSFLLKCLEQVRKIQGDGAALQEKLVSECATYKLCHPEELVLLGHSLGIPWAPLSSCPSQALQLAGCLSQLHSGLFLYQGLLQALEGISPELGPTLDTLQLDVADFATTIWQQMEELGMAPALQPTQGAMPAFASAFQRRAGGVLVASHLQSFLEVSYRVLRHLAQP
modifications: filgrastim, N-terminal methionine
- Decline in leukocytes on post-day 2 (B6D2F1 mice [3]; Ptx 90 mg/kg, 24 hrs after G-CSF injection): not observed
- Effect on Ptx-induced increase of platelet numbers (B6D2F1 mice [3]; mouse, in vivo): also not affected

— patent publication US20100178279A1, “Beta-Glucan Enhances Hematopoietic Progenitor Cells Engraftment and Promotes Recovery from Chemotoxicity” (Cornell University, priority 2009, published 2010)
